Data taken from article PMC6691788, “Design and synthesis of phthalazine-based compounds as potent anticancer agents with potential antiangiogenic activity via VEGFR-2 inhibition” (Journal of Enzyme Inhibition and Medicinal Chemistry, 2019).

Experiments:
U251 = assay: NCI 60 cell panel SRB screen; format: cell-based; conditions: Homo sapiens, U-251
MOLT-4 = assay: NCI 60 cell panel SRB screen; format: cell-based; conditions: Homo sapiens
ACHN = assay: NCI 60 cell panel SRB screen; format: cell-based; conditions: Homo sapiens
SK-OV-3 = assay: NCI 60 cell panel SRB screen; format: cell-based; conditions: Homo sapiens
VEGFR-2 tyrosine kinase = biological target: T1, VEGFR-2 tyrosine kinase (Homo sapiens, UniProt P35968); assay: In vitro VEGFR-2 tyrosine kinase assay (BPS Bioscience); format: biochemical; conditions: read-out: VEGFR-2 % inhibition; 10 μM concentration
T1 construct: purchased BPS Bioscience 40301
In short: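 For IC50, ADP formation after a 30-min 30 °C reaction was detected by ADP-Glo luminescence in duplicate, blank-subtracted and fitted as log inhibitor versus normalised response. The 10 µM single-dose test instead measured remaining ATP (Kinase-Glo Plus) after 40 min at 30 °C with poly(Glu,Tyr) substrate, 10 μM ATP, pH 7.4, 1% DMSO.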

NCI-H522 = assay: NCI 60 cell panel SRB screen; format: cell-based; conditions: Homo sapiens
MDA-MB-435 = assay: NCI 60 cell panel SRB screen; format: cell-based; conditions: Homo sapiens
MCF7 = assay: NCI 60 cell panel SRB screen; format: cell-based; conditions: Homo sapiens
UO-31 = assay: NCI 60 cell panel SRB screen; format: cell-based; conditions: Homo sapiens
NCI-H23 = assay: NCI 60 cell panel SRB screen; format: cell-based; conditions: Homo sapiens
NCI/ADR-RES = assay: NCI 60 cell panel SRB screen; format: cell-based; conditions: Homo sapiens
RPMI-8226 = assay: NCI 60 cell panel SRB screen; format: cell-based; conditions: Homo sapiens
UACC-257 = assay: NCI 60 cell panel SRB screen; format: cell-based; conditions: Homo sapiens
HOP-92 = assay: NCI 60 cell panel SRB screen; format: cell-based; conditions: Homo sapiens
SF-295 = assay: NCI 60 cell panel SRB screen; format: cell-based; conditions: Homo sapiens
SF-268 = assay: NCI 60 cell panel SRB screen; format: cell-based; conditions: Homo sapiens
A549/ATCC = assay: NCI 60 cell panel SRB screen; format: cell-based; conditions: Homo sapiens
K-562 = assay: NCI 60 cell panel SRB screen; format: cell-based; conditions: Homo sapiens, K562
NCI-H322M = assay: NCI 60 cell panel SRB screen; format: cell-based; conditions: Homo sapiens
SN12C = assay: NCI 60 cell panel SRB screen; format: cell-based; conditions: Homo sapiens
[1] = 5 log dose, 48 h, read-out: LC50 (the source's name)
[2] = single dose 10 μM, read-out: percent cell growth promotion

T1 sequence (P35968 20-1356): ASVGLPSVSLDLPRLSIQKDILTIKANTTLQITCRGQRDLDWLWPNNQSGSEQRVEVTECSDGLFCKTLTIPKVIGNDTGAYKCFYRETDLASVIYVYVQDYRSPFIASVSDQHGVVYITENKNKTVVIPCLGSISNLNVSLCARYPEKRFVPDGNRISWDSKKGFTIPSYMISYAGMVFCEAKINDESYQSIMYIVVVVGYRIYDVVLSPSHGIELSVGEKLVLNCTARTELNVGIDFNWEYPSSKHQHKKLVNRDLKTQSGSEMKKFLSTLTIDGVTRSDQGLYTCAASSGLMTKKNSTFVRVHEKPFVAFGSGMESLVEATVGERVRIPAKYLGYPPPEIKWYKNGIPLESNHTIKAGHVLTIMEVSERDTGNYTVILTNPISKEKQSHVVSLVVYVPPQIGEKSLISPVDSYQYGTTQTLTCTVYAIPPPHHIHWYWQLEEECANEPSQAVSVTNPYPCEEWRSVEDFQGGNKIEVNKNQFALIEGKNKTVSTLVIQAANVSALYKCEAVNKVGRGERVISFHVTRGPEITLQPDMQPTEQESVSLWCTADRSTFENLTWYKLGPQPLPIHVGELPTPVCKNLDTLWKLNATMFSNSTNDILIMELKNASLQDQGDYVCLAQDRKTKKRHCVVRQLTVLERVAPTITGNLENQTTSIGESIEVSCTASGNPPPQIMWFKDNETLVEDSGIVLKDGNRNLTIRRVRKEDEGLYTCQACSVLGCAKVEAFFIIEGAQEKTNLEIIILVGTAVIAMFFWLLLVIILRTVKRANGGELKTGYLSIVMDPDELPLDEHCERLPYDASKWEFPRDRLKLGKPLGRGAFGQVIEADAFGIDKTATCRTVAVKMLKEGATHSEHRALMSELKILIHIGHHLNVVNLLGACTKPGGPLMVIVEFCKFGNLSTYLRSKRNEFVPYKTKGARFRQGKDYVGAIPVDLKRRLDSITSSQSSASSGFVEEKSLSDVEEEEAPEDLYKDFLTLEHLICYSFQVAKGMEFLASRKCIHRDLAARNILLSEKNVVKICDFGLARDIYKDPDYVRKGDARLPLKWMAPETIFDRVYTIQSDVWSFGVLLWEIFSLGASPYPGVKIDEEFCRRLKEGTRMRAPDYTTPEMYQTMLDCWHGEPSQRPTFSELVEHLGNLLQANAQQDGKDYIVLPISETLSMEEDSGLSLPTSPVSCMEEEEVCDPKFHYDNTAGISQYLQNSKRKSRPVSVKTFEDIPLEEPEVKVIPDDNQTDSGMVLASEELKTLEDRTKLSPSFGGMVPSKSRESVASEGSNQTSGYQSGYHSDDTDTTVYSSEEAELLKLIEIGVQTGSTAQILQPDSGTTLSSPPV

Structure (SMILES): O=C(Nc1ccc(Cl)cc1)Nc1ccc(Nc2nncc3ccccc23)cc1 [Compound 6b, 1–(4-Chlorophenyl)-3–(4-(phthalazin-1-ylamino)phenyl)urea]
- GI50 (U251; U251, 5 log dose): 2.86 µM
- IC (TGI) (U251; U251, 5 log dose): 10.3 µM
- CC50 (U251; U251, 5 log dose, 48 h, read-out: LC50 (the source's name)): 37.2 µM
- activity at 10 µM (U251; U251, single dose 10 μM, read-out: percent cell growth promotion): 18.3%
- GI50 (MOLT-4; MOLT-4, 5 log dose): 2.09 µM
- IC (TGI) (MOLT-4; MOLT-4, 5 log dose): 6.36 µM
- CC50 (MOLT-4; MOLT-4, 5 log dose, 48 h, read-out: LC50 (the source's name)): > 100 µM
- activity at 10 µM (MOLT-4; MOLT-4, single dose 10 μM, read-out: percent cell growth promotion): -1.61%
- GI50 (ACHN; 5 log dose): 1.12 µM
- IC (TGI) (ACHN; 5 log dose): 7.12 µM
- CC50 (ACHN; [1]): > 100 µM
- activity at 10 µM (ACHN; [2]): 22.4%
- GI50 (SK-OV-3; SK-OV-3, 5 log dose): 3.05 µM
- IC (TGI) (SK-OV-3; SK-OV-3, 5 log dose): 17.7 µM
- CC50 (SK-OV-3; SK-OV-3, 5 log dose, 48 h, read-out: LC50 (the source's name)): > 100 µM
- activity at 10 µM (SK-OV-3; SK-OV-3, single dose 10 μM, read-out: percent cell growth promotion): 38.2%
- inhibition at 10 µM (VEGFR-2 tyrosine kinase): 20%
- GI50 (NCI-H522; NCI-H522, 5 log dose): 1.32 µM
- IC (TGI) (NCI-H522; NCI-H522, 5 log dose): 8.81 µM
- CC50 (NCI-H522; NCI-H522, 5 log dose, 48 h, read-out: LC50 (the source's name)): 43.2 µM
- activity at 10 µM (NCI-H522; NCI-H522, single dose 10 μM, read-out: percent cell growth promotion): 11.9%
- GI50 (MDA-MB-435; MDA-MB-435): 2.14 µM
- IC (TGI) (MDA-MB-435; MDA-MB-435, read-out: TGI): 9.42 µM
- activity at 10 µM (MDA-MB-435; MDA-MB-435, read-out: percent cell growth promotion): 13.7%
- CC50 (MDA-MB-435; MDA-MB-435, 5 log dose, 48 h, read-out: LC50 (the source's name)): 30.9 µM
- GI50 (MCF7; MCF7): 1.43 µM
- IC (TGI) (MCF7; MCF7, read-out: TGI): 8.32 µM
- activity at 10 µM (MCF7; MCF7, read-out: percent cell growth promotion): 5.46%
- CC50 (MCF7; MCF7, 5 log dose, 48 h, read-out: LC50 (the source's name)): 64.1 µM
- GI50 (UO-31; UO-31, 5 log dose): 1.9 µM
- IC (TGI) (UO-31; UO-31, 5 log dose): 15.8 µM
- CC50 (UO-31; UO-31, 5 log dose, 48 h, read-out: LC50 (the source's name)): > 100 µM
- activity at 10 µM (UO-31; UO-31, single dose 10 μM, read-out: percent cell growth promotion): 19%
- GI50 (NCI-H23; NCI-H23, 5 log dose): 3.07 µM
- IC (TGI) (NCI-H23; NCI-H23, 5 log dose): 14.4 µM
- CC50 (NCI-H23; NCI-H23, 5 log dose, 48 h, read-out: LC50 (the source's name)): 71.8 µM
- activity at 10 µM (NCI-H23; NCI-H23, single dose 10 μM, read-out: percent cell growth promotion): 12.5%
- GI50 (NCI/ADR-RES; 5 log dose): 2.79 µM
- IC (TGI) (NCI/ADR-RES; 5 log dose): 26.3 µM
- CC50 (NCI/ADR-RES; [1]): > 100 µM
- activity at 10 µM (NCI/ADR-RES; [2]): 36.2%
- GI50 (RPMI-8226; RPMI-8226, 5 log dose): 2.5 µM
- IC (TGI) (RPMI-8226; RPMI-8226, 5 log dose): 8.75 µM
- CC50 (RPMI-8226; RPMI-8226, 5 log dose, 48 h, read-out: LC50 (the source's name)): > 100 µM
- activity at 10 µM (RPMI-8226; RPMI-8226, single dose 10 μM, read-out: percent cell growth promotion): 8.62%
- GI50 (UACC-257; UACC-257): 3.41 µM
- IC (TGI) (UACC-257; UACC-257, read-out: TGI): 10.8 µM
- activity at 10 µM (UACC-257; UACC-257, read-out: percent cell growth promotion): 15.3%
- CC50 (UACC-257; UACC-257, 5 log dose, 48 h, read-out: LC50 (the source's name)): 33.5 µM
- GI50 (HOP-92; HOP-92, 5 log dose): 2.55 µM
- IC (TGI) (HOP-92; HOP-92, 5 log dose): 7.26 µM
- CC50 (HOP-92; HOP-92, 5 log dose, 48 h, read-out: LC50 (the source's name)): > 100 µM
- activity at 10 µM (HOP-92; HOP-92, single dose 10 μM, read-out: percent cell growth promotion): 38.7%
- GI50 (SF-295; SF-295, 5 log dose): 2.84 µM
- IC (TGI) (SF-295; SF-295, 5 log dose): 11 µM
- CC50 (SF-295; SF-295, 5 log dose, 48 h, read-out: LC50 (the source's name)): 45.8 µM
- activity at 10 µM (SF-295; SF-295, single dose 10 μM, read-out: percent cell growth promotion): 17.8%
- GI50 (SF-268; SF-268, 5 log dose): 3.19 µM
- IC (TGI) (SF-268; SF-268, 5 log dose): 28.1 µM
- CC50 (SF-268; SF-268, 5 log dose, 48 h, read-out: LC50 (the source's name)): > 100 µM
- activity at 10 µM (SF-268; SF-268, single dose 10 μM, read-out: percent cell growth promotion): 42.4%
- GI50 (A549/ATCC; 5 log dose): 3.03 µM
- IC (TGI) (A549/ATCC; 5 log dose): 19.3 µM
- LC50 (concentration killing 50% of cells) (A549/ATCC; 5 log dose, 48 h): > 100 µM
- activity at 10 µM (A549/ATCC; [2]): 20.1%
- GI50 (K-562; K-562, 5 log dose): 1.68 µM
- IC (TGI) (K-562; K-562, 5 log dose): 26.4 µM
- CC50 (K-562; K-562, 5 log dose, 48 h, read-out: LC50 (the source's name)): > 100 µM
- activity at 10 µM (K-562; K-562, single dose 10 μM, read-out: percent cell growth promotion): 9.49%
- GI50 (NCI-H322M; 5 log dose): 5 µM
- IC (TGI) (NCI-H322M; 5 log dose): 15 µM
- CC50 (NCI-H322M; [1]): > 100 µM
- activity at 10 µM (NCI-H322M; [2]): 64.3%
- GI50 (SN12C; 5 log dose): 4.58 µM
- IC (TGI) (SN12C; 5 log dose): 37.2 µM
- CC50 (SN12C; [1]): > 100 µM
- activity at 10 µM (SN12C; [2]): 26.4%
